Values of other authors as cited in patent publication US20080254114A1, “Controlled Release Compositions Comprising Heterocyclic Amide Derivative Nanoparticles” (Elan Corporation plc, priority 2005, published 2008).

Legend:
[1] = test system: leukotrienes (LTC4, LTD4 and LTE4); details: conducting airway smooth muscle, in vitro
[2] = administration with food; high fat meal and high protein meal, two separate studies
[3] = test system: airway responses to antigen; details: sensitized sheep, inhalational challenge
[4] = test system: LTD4; details: inhaled LTD4
[5] = test system: bronchoconstriction

solubility in acetone (acetone): freely soluble
solubility in dimethyl-sulfoxide (dimethyl-sulfoxide): freely soluble
solubility in methanol (methanol): slightly soluble
solubility in tetrahydrofuran (tetrahydrofuran): freely soluble
solubility in water (water): practically insoluble
reduction of mean bioavailability by food [2]: approximately 40%
Compound: COc1cc(C(=O)NS(=O)(=O)c2ccccc2C)ccc1Cc1cn(C)c2ccc(NC(=O)OC3CCCC3)cc12 [Zafirlukast, 4-(5-cyclopentyloxy-carbonylamino-1-methyl-indol-3-ylmethyl)-3-methoxy-N-o-tolylsulfonylbenzamide]
contractile activity of LTC4, LTD4 and LTE4 [1]: antagonized
airway responses to antigen (early- and late-phase response, nonspecific hyperresponsiveness) [3]: suppressed
LTD4-induced influx of eosinophils into animal lungs [4]: inhibited
increase in bronchial hyperresponsiveness to inhaled histamine ([5]; following inhaled allergen challenge): attenuated
early- and late-phase reaction caused by inhalation of antigens (grass, cat dander, ragweed, mixed antigens) ([5]; patients with asthma, pretreatment with single doses): attenuated
bronchoconstriction caused by sulfur dioxide and cold air ([5]; patients with asthma, pretreatment with single oral doses): inhibited
